Test results published in patent publication US12172946B2, “Compound containing diphenylmethane structure and use thereof” (GUANGZHOU TROJAN PHARMATEC LTD., priority 2019, dated 2024).

Test: solubility of the compound in common solvents
Format: physicochemical
Details: 25-30° C.; for solubility in DMF: N,N-dimethylformamide; for solubility in i-PrOAc: isopropyl acetate; for solubility in MTBE: methyl tert-butyl ether
Experimental: The solubility of the compound of the present invention in common solvents was investigated (25-30° C.), and the results are shown in Table 1. It can be seen from Table 1 that the compound of the present invention has good solubility in all of heptane, isopropyl acetate (i-PrOAc), methyl tert-butyl ether (MTBE) and N,N-dimethylformamide (DMF), and particularly, the solubility in N,N-dimethylformamide is much higher than Comparative Examples.

Row | Molecule | solubility in DMSO | solubility in MeOH | solubility in DMF | solubility in Heptane | solubility in i-PrOAc | solubility in MTBE
1 | 4,4′-di(2-(2-(3,4,5-tris(2,3-dihydrophytoxy)-benzamido)-ethoxy)-ethoxy)-benzhydrylamine [DPA-004] | <1% | <1% | >1% | >50% | >100% | >100%
2 | 4,4′-di((5-(3,4,5-tris(isononyloxy)-benzamido)-2-one-3-aza-hexyl)oxy)-benzhydrylamine [DPA-009] | <1% | <1% | >30% | >10% | >25% | >30%
3 | 4-(2-(2-(3,4,5-tris(isomeric decyloxy)-benzamido)-ethoxy)-ethoxy)-benzhydrylamine [DPA-006] | <1% | <1% | >100% | >100% | >100% | >100%
4 | CC(C)CCCCCOc1cc(C(=O)NCCOCCOc2ccc(C(N)c3ccc(OCCOCCNC(=O)c4cc(OCCCCCC(C)C)c(OCCCCCC(C)C)c(OCCCCCC(C)C)c4)cc3)cc2)cc(OCCCCCC(C)C)c1OCCCCCC(C)C [DPA-001, 4,4′-di(2-(2-(3,4,5-tris(isooctyloxy)-benzamido)-ethoxy)-ethoxy) benzhydrylamine] | <1% | <1% | >20% | >25% | >30% | >30%
5 | CCCCCCCCCCCCCOc1cc(C(=O)NCCOCCOc2ccc(C(N)c3ccc(OCCOCCNC(=O)c4cc(OCCCCCCCCCCCCC)c(OCCCCCCCCCCCCC)c(OCCCCCCCCCCCCC)c4)cc3)cc2)cc(OCCCCCCCCCCCCC)c1OCCCCCCCCCCCCC [DPA-003, 4,4′-di(2-(2-(3,4,5-tris(isomeric tridecyloxy)-benzamido)-ethoxy)-ethoxy)-benzhydrylamine] | <1% | <1% | >20% | >50% | >100% | >100%
6 | CCCCCCCCCCCCCOc1cc(C(=O)NCCOCCOc2ccc(C(N)c3ccccc3)cc2)cc(OCCCCCCCCCCCCC)c1OCCCCCCCCCCCCC (stereo not drawn) [DPA-007, 4-(2-(2-(3,4,5-tris(isomeric tridecyloxy)-benzamido)-ethoxy)-ethoxy)-benzhydrylamine] | <1% | <1% | >100% | >100% | >100% | >100%
7 | CC(C)CCCCCCOc1cc(C(=O)NCCOCCOc2ccc(C(N)c3ccc(Cl)cc3)cc2)cc(OCCCCCCC(C)C)c1OCCCCCCC(C)C (stereo not drawn) [DPA-011, 4-(2-(2-(3,4,5-tris(isononyloxy)-benzamido)-ethoxy)-ethoxy)-4′-chloro-benzhydrylamine] | <1% | <1% | >150% | >100% | >100% | >50%
8 | CCCCCCCCCCCCCOc1ccc(CC(=O)NCCOCCOc2ccc(C(N)c3ccccc3)cc2)cc1OCCCCCCCCCCCCC (stereo not drawn) [DPA-013, 4-(2-(2-(3,4-di(isomeric tridecyloxy)-phenylacetamido)-ethoxy)-ethoxy)-benzhydrylamine] | <1% | <1% | >50% | >50% | >70% | >50%
9 | CC(C)CCCCCCCCCCCCCCC(=O)NCCCCC(NC(=O)CCCCCCCCCCCCCCC(C)C)C(=O)NCCOCCOc1ccc(C(N)c2ccccc2)cc1 (stereo not drawn) [DPA-014, 4-(2-(2-(2,6-diisostearamido-hexanamido)-ethoxy)-ethoxy)-benzhydrylamine] | <10% | <10% | >40% | >30% | >50% | >50%
10 | CCCCCCCCCCCCCOc1cc(C(=O)NCCCC(=O)NCCOCCOc2ccc(C(N)c3ccccc3)cc2)cc(OCCCCCCCCCCCCC)c1OCCCCCCCCCCCCC (stereo not drawn) [DPA-015, 4-(2-(2-(4-(3,4,5-tri(isomeric tridecyloxy)-benzamido)-butyrylamido)-ethoxy)-ethoxy)-benzhydrylamine] | <1% | <1% | >100% | >50% | >100% | >100%
11 | CCCCCCCCCCCCCOc1cc(C(=O)NCCCCC(NC(=O)c2cc(OCCCCCCCCCCCCC)c(OCCCCCCCCCCCCC)c(OCCCCCCCCCCCCC)c2)C(=O)NCCOCCOc2ccc(C(N)c3ccccc3)cc2)cc(OCCCCCCCCCCCCC)c1OCCCCCCCCCCCCC (stereo not drawn) [DPA-017] | <5% | <5% | >100% | >100% | >100% | >100%
12 | CC(CCC(C(=O)NCCOCCOc1ccc(C(N)c2ccc(OCCOCCNC(=O)C(CCC(C)CC(C)(C)C)C(C)CC(C)(C)C)cc2)cc1)C(C)CC(C)(C)C)CC(C)(C)C (stereo not drawn) [DPA-018, 4,4′-di(2-(2-(isostearamido)-ethoxy)-ethoxy)-benzhydrylamine] | <5% | <10% | >100% | >5% | >100% | >100%

Continued, values first:

Row | solubility in DMSO | solubility in MeOH | solubility in DMF | solubility in Heptane | solubility in i-PrOAc | solubility in MTBE | Molecule
13 | <1% | <1% | >30% | >50% | >100% | >100% | 4-(2-(2-(3,4,5-tri(octa/decy/dodecyloxy)-benzamido)-ethoxy)-ethoxy)-benzhydrylamine [DPA-024]
14 | <5% | <10% | >50% | >50% | >100% | >100% | CC(CCC(C(=O)N(CCOCCOc1ccc(C(N)c2ccccc2)cc1)Cc1ccccc1)C(C)CC(C)(C)C)CC(C)(C)C (stereo not drawn) [DPA-019]
15 | <5% | <5% | >100% | >100% | >100% | >100% | CC(CCC(C(=O)N(CCOCCOc1ccc(C(N)c2ccc(OCCOCCN(Cc3ccccc3)C(=O)C(CCC(C)CC(C)(C)C)C(C)CC(C)(C)C)cc2)cc1)Cc1ccccc1)C(C)CC(C)(C)C)CC(C)(C)C (stereo not drawn) [DPA-020]
16 | <5% | <5% | >30% | >50% | >50% | >50% | CCCCCCCCCCCCOc1cc(C(=O)NCCOCCOc2ccc(C(N)c3ccccc3)cc2)cc(OCCCCCCCCCCCC)c1OCCCCCCCCCCCC (stereo not drawn) [DPA-023, 4-(2-(2-(3,4,5-tri(n-dodecyloxy)-benzamido)-ethoxy)-ethoxy)-benzhydrylamine]
17 | <1% | <1% | >100% | >50% | >100% | >100% | CCCCCCCCCCCCCOc1cc(C(=O)N(C)CCOc2ccc(C(N)c3ccccc3)cc2)cc(OCCCCCCCCCCCCC)c1OCCCCCCCCCCCCC (stereo not drawn) [DPA-026, 4-(2-(N′-methy-3,4,5-tri(isomeric tridecyloxy)-benzamido)-ethoxy)-benzhydrylamine]
18 | <1% | <1% | >75% | >50% | >75% | >75% | CCCCCCCCCCCCCOc1ccc(CN(CCOCCOc2ccc(C(N)c3ccccc3)cc2)C(C)=O)cc1OCCCCCCCCCCCCC (stereo not drawn) [DPA-027]
19 | <1% | <1% | >100% | >100% | >100% | >100% | CCCCCCCCCCCCCOc1ccc(CN(CCOCCOc2ccc(C(N)c3ccccc3)cc2)C(=O)CC(C)CC(C)(C)C)cc1OCCCCCCCCCCCCC (stereo not drawn) [DPA-028]
20 | <1% | <1% | >100% | >100% | >100% | >100% | CCCCCCCCCCCCCOc1ccc(CN(CCOCCOc2ccc(C(N)c3ccccc3)cc2)C(=O)c2cc(OCCCCCCCCC)c(OCCCCCCCCC)c(OCCCCCCCCC)c2)cc1OCCCCCCCCCCCCC (stereo not drawn) [DPA-029]
21 | <1% | <1% | >40% | >40% | >40% | >40% | CCCCCCCCCCCCCOc1ccc(CN(CC(=O)NCCOCCOc2ccc(C(N)c3ccccc3)cc2)C(=O)CC(C)CC(C)(C)C)cc1OCCCCCCCCCCCCC (stereo not drawn) [DPA-030, 4-(2-(2-(2-(N″-3,4-di(isomeric tridecyloxy)-benzyl)-isononanoamido)-acetamido)-ethoxy)-ethoxy-benzhydrylamine]
22 | <1% | <1% | >100% | >50% | >100% | >100% | CCCCCCCCCCCCCOc1ccc(CN(CC(=O)NCCOCCOc2ccc(C(N)c3ccccc3)cc2)C(=O)c2cc(OCCCCCCCCC)c(OCCCCCCCCC)c(OCCCCCCCCC)c2)cc1OCCCCCCCCCCCCC (stereo not drawn) [DPA-031, 4-(2-(2-(2-(N″-3,4-di(isomeric tridecyloxy)-benzyl)-3,4,5-tri(isononyloxy)-benzamido)-acetamido)-ethoxy)-ethoxy-benzhydrylamine]
